Measurements: EP1192131B1, “METHOD OF INHIBITING AMYLOID PROTEIN AGGREGATION AND IMAGING AMYLOID DEPOSITS USING ISOINDOLINE DERIVATIVES” (Warner-Lambert Company LLC, priority 1999, dated 2000)
“And” between values parts separate entries of the source, which are not always exact repeats. Equal entries are not always repeated. Where two headings read alike, the source gives them in different places.

Key:
Aβ(1-40) = Aβ(1-40) (Homo sapiens, UniProt P05067); assay: BASST (Beta-Amyloid Self-seeding, ThioflavinT), inhibition of self-seeded amyloid fibril growth; type: biochemical; design: 30 µM soluble Aβ (1-40) in deionized water in assay buffer; conditions: 30 µM soluble Aβ (1-40), 37°C, 3 to 5 hours, thioflavin T fluorescence, letter in parentheses = lot of compound (no letter = Lot P)
Chain of Aβ(1-40) (P05067 672-711): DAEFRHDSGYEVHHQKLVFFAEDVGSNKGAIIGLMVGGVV
Procedure: BASST (Beta-Amyloid Self-seeding, ThioflavinT)
An assay for inhibitors of self-seeded amyloid fibril growth
Assay Buffer - 50 mM sodium phosphate, pH 7.5, 100 mM NaCl, 0.02% NaN3, 1 M urea (filter and store at 4°C).
Soluble Aβ (1-40) - 2.2 mg/mL in deionized H2O (store in aliquots at -20°C, keep on ice when thawed) will self-seed after 1 week storage. Typically, the solution should be stored until no lag phase is seen in the assay.
Final assay conditions: 30 µM soluble Aβ (1-40) in deionized water in assay buffer. Compound to be tested is dissolved in DMSO, typically 5-50 mM stock, such that the final concentration of DMSO is <1% v/v in the assay.
Assay: Reaction mixture for 50 assays (on ice) comprised of 1 µL of soluble Aβ (1-40) + 13.5 µL assay buffer per assay. The following are the amounts of the components of the reaction mixture that result in each of the 50 assay wells. 50 µL soluble Aβ (1-40) 675 µL assay buffer
• 1) Prepare the reaction mix above by mixing the components and storing on ice. • 2) Pipet 14.5 µL of reaction mixture into each of 50 wells of a polystyrene U-bottom 96-well microtiter plate (Coming 25881-96) on ice. • 3) Add 1.7 µL of diluted compound to be tested to each well in a column of eight, including solvent control. Serial 3-fold dilutions from 1 mM (100 µM final) in assay buffer -urea = 7 dilutions + zero. Each 96-well plate can therefore accommodate 11 samples + 1 Congo Red control (0.039-5 µM final in 2-fold steps). • 4) Seal the plate with aluminum film and incubate for 10 minutes on ice. • 5) Raise the temperature to 37°C and incubate for 3 to 5 hours (depends on the lot of the peptide). • 6) Remove the aluminum film and add 250 µL/well of 5 µM thioflavin T (ThT) [T-3516, Sigma-Aldrich] in 50 mM glycine-NaOH, pH 8.5. Read fluorescence on a plate reader (ex = 440 nm/20 nm; em = 485 nm/20 nm) within 5 minutes.

Aβ (1-42) = biological target: T1, Aβ (1-42) (Homo sapiens, UniProt P05067); assay: BATYM assay, Aβ (1-42) aggregation, Thioflavin T fluorescence; type: biochemical
T1 construct: Required Aβ (1-42)(California Peptide) was dried from its hexafluoroisopropanol (HFIP) stock solution; purchased California Peptide
T1 sequence (P05067 672-713): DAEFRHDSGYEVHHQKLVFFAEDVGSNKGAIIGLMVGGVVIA
Procedure: Required Aβ (1-42)(California Peptide) was dried from its hexafluoroisopropanol (HFIP) stock solution. The Aβ (1-42) was dissolved in dimethylsulfoxide (DMSO) and then mixed with phosphate buffered saline (PBS) (pH 7.4). The mixed Aβ (1-42) solution was filtered through a […] Omnipore membrane syringe filter (Millipore, Bedford, MA). The compound to be tested in DMSO (50 times concentrate) was put into each well (0.5 µL/well) of a 96-well plate. The Aβ (1-42) solution was added into each well (24.5 µL/well). The plate was centrifuged at 1,000 g for 5 minutes and incubated at 37°C for 1 day (Aβ 1-42; final concentration 100 µM).
After incubation Thioflavin T (ThT) (30 µM) solution in glycine-NaOH buffer (pH 8.5, 50 mM) was added into each well (250 µL/well), fluorescence was measured (ex. 440/20 nm; em 485/20 nm) using a fluorescence plate reader. The inhibitory activity was calculated as the reduction of fluorescence with the following formula: Inhibition (%) = {(F(Aβ)-F(Aβ+compound)}/{F(Aβ)-F (solvent+compound)} × 100 [formula]
The IC50s (concentration of test compound required to cause a 50% inhibition of aggregation) were calculated by a curve fitting program using the following equation. The data were obtained from two different experiments in triplicate. Inhibition (x) = 100-100/{1 + (x/IC50)^n }, [formula] x = concentration of tested compound (M), IC50 = (M), n = Hill coefficient.

[1] = read-out: BASST IC50 (converted)
[2] = Aβ 1-42 final concentration 100 µM, 37°C, 1 day, letter in parentheses = lot of compound (no letter = Lot P), read-out: BATYM IC50
[3] = read-out: BATYM IC50, Aβ 1-42 final concentration 100 µM, 37°C, 1 day, letter in parentheses = lot of compound (no letter = Lot P)

Row | Compound | IC50 (Aβ(1-40); [1]) | IC50 (Aβ (1-42); [2]) | IC50 (Aβ(1-40); read-out: BASST IC50) [nM] | IC50 (Aβ (1-42); [3]) [µM]
1 | Clc1ccc(N2Cc3ccc(Nc4ccccc4-c4nnn[nH]4)cc3C2)cc1Cl [Example 16, [2-(3,4-Dichloro-phenyl)-2,3-dihydro-1H-isoindol-5-yl]-[2-(1H-tetrazol-5-yl)-phenyl]-amine] | 1800 nM | 29.5 µM |  | 
2 | 2-[2-(3,4-Dimethylphenyl)-2,3-dihydro-1H-isoindol-5-ylamino]benzoic acid [Example 9] | 1500 nM | 32.9 µM |  | 
3 | Cc1ccc(N2Cc3ccc(Nc4ccc([N+](=O)[O-])cc4C(=O)O)cc3C2)cc1C [Example 12, 2-[2-(3,4-Dimethyl-phenyl)-2,3-dihydro-1H-isoindol-5-ylamino]-5-nitro-benzoic acid] | 1100 nM | 11.7 µM |  | 
4 | 2-[2-(4-chlorophenyl)-2,3-dihydro-1H-isoindol-5-ylamino]benzoic acid [Example 8] | 1000 nM | 33.4 µM |  | 
5 | COc1cc(N2Cc3ccc(Nc4ccccc4C#N)cc3C2)cc(OC)c1OC [Example 25, 2-[2-(3,4,5-Trimethoxy-phenyl)-2,3-dihydro-1H-isoindol-5-ylamino]-benzonitrile] | 15000 nM | > 100 µM |  | 
6 | O=C(O)c1ccccc1Nc1ccc2c(c1)CN(c1ccc(Cl)c(Cl)c1)C2 [Example 4, 2-[2-(3,4-Dichlorophenyl)-2,3-dihydro-1H-isoindol-5-ylamino]benzoic acid] | 2000 nM | 26.1 µM and 22.2 µM |  | 
7 | 2-[2-(3-chlorophenyl)-2,3-dihydro-1H-isoindol-5-ylamino]benzoic acid [Example 7] | 1100 nM | 37.3 µM |  | 
8 | O=C(O)c1ccccc1Nc1ccc2c(c1)CN(c1cccc(F)c1)C2 [Example 22, 2-[2-(3-Fluoro-phenyl)-2,3-dihydro-1H-isoindol-5-ylamino]-benzoic acid] | 6000 nM and 2000 nM | 84 µM |  | 
9 | O=C(O)c1cc([N+](=O)[O-])ccc1Nc1ccc2c(c1)CN(c1ccccc1)C2 [Example 18, 5-Nitro-2-(2-phenyl-2,3-dihydro-1H-isoindol-5-ylamino)-benzoic acid] | 900 nM and 1000 nM and 600 nM | 16.6 µM |  | 
10 | Nc1ccc(Nc2ccc3c(c2)CN(c2ccc(Cl)c(Cl)c2)C3)c(C(=O)O)c1 [Example 17, 5-Amino-2-[2-(3,4-dichloro-phenyl)-2,3-dihydro-1H-isoindol-5-ylamino]-benzoic acid] | 1500 nM | 20 µM |  | 
11 | O=C(O)c1cc([N+](=O)[O-])ccc1Nc1ccc2c(c1)CN(c1ccc(Cl)c(C(F)(F)F)c1)C2 [Example 19, 2-[2-(4-Chloro-3-trifluoromethyl-phenyl)-2,3-dihydro-1H-isoindol-5-ylamino]-5-nitro-benzoic acid] |  |  | 1000 | 12.8
12 | COc1cccc(N2Cc3ccc(Nc4ccccc4C(=O)O)cc3C2)c1 [Example 26, 2-[2-(3-Methoxy-phenyl)-2,3-dihydro-1H-isoindol-5-ylamino]-benzoic acid] | 10000 nM | 64.9 µM |  | 
13 | COc1cc(Nc2ccc3c(c2)CN(c2ccc(Cl)c(Cl)c2)C3)c(C(=O)O)cc1[N+](=O)[O-] [Example 6, 2-[2-(3,4-Dichlorophenyl)-2,3-dihydro-1H-isoindol-5-ylamino]-4-methoxy-5-nitro-benzoic acid] | 1000 nM and 1500 nM | 13.5 µM and 14.6 µM |  | 
14 | COc1cccc(N2Cc3ccc(Nc4ccc([N+](=O)[O-])cc4C(=O)O)cc3C2)c1 [Example 21, 2-[2-(3-Methoxy-phenyl)-2,3-dihydro-1H-isoindol-5-ylamino]-5-nitro-benzoic acid] | 700 nM | 9.64 µM |  | 
15 | O=C(O)c1cc(F)ccc1Nc1ccc2c(c1)CN(c1ccc(Cl)c(Cl)c1)C2 [Example 23, 2-[2-(3,4-Dichloro-phenyl)-2,3-dihydro-1H-isoindol-5-ylamino]-5-fluoro-benzoic acid] | 3 µM and 2 µM (2×) | 34.1 µM |  | 
16 | O=C(O)c1ccccc1Nc1ccc2c(c1)CN(c1ccc(Cl)c(C(F)(F)F)c1)C2 [Example 10, 2-[2-(4-Chloro-3-trifluoromethylphenyl)-2,3-dihydro-1H-isoindol-5-ylamino]benzoic acid] |  |  | 3000 | 34.6
17 | O=C(O)c1cc([N+](=O)[O-])ccc1Nc1ccc2c(c1)CN(c1cccc(F)c1)C2 [Example 20, 2-[2-(3-Fluoro-phenyl)-2,3-dihydro-1H-isoindol-5-ylamino]-5-nitro-benzoic acid] | 2000 nM | 11.5 µM |  | 
18 | O=C(O)c1cc([N+](=O)[O-])ccc1Nc1ccc2c(c1)CN(c1ccc(Cl)cc1)C2 [Example 15, 2-[2-(4-Chloro-phenyl)-2,3-dihydro-1H-isoindol-5-ylamino]-5-nitro-benzoic acid] | 600 nM | 32.5 µM |  | 
